Molecules are shown by their SMILES. Read-outs that look alike come from different tables or passages of the source.

The test system of test [1] is HCT116 colorectal cancer cells. Kind of test: Cisplatin Sensitization Assay (96 h MTS cell viability). It is filed as cell-based. Particulars: concentration of compound required to reduce the IC50 of Cisplatin alone by at least 3-fold. The protocol: (§1) Compounds were screened for their ability to sensitize HCT116 colorectal cancer cells to Cisplatin using a 96 h cell viability (MTS) assay. […] Compounds and Cisplatin were then both added simultaneously to the cell media in 2-fold serial dilutions from a top final concentration of 10 μM as a full matrix of concentrations in a final cell volume of 200 μl, and the cells were then incubated at 37° C. in 5% CO2. After 96 h, 40 μl of MTS reagent (Promega G358a) was added to each well and the cells were incubated for 1 h at 37° C. in 5% CO2.

The target in the next test is full-length ATR (Homo sapiens (Human), UniProt Q13535). As to the kind of experiment: ATR Inhibition Assay (radioactive-phosphate incorporation). The test is classed as biochemical. The essentials:
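Ki(app) was derived by non-linear regression of background-corrected initial rates of 33P incorporation into an 800 μM target peptide, read by phosphocellulose filter scintillation counting. Reaction conditions: 5 nM full-length ATR, 10 μM [γ-33P]ATP, pH 7.5 Tris buffer with MgCl2 and DTT, 25 °C, 10-min preincubation, 24 h run.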

The next test deals with intracellular ATR (Homo sapiens (Human), UniProt Q13535). As to the kind of experiment: Cellular ATR Inhibition Assay (H2AX phosphorylation in hydroxyurea treated HT29 cells). It is filed as cell-based. To be noted: 2 mM hydroxyurea, phosphorylated H2AX-positive nuclei. How it is done:
Compounds can be screened for their ability to inhibit intracellular ATR using an immunofluorescence microscopy assay to detect phosphorylation of the ATR substrate histone H2AX in hydroxyurea treated cells. HT29 cells are plated at 14,000 cells per well in 96-well black imaging plates (BD 353219) in McCoy's 5 A media (Sigma M8403) supplemented with 10% foetal bovine serum (JRH Biosciences 12003), Penicillin/Streptomycin solution diluted 1:100 (Sigma P7539), and 2 mM L-glutamine (Sigma G7513), and allowed to adhere overnight at 37° C. in 5% CO2. Compounds are then added to the cell media from a final concentration of 25 μM in 3-fold serial dilutions and the cells are incubated at 37° C. in 5% CO2. After 15 min, hydroxyurea (Sigma H8627) is added to a final concentration of 2 mM.
After 45 min of treatment with hydroxyurea, the cells are washed in PBS, fixed for 10 min in 4% formaldehyde diluted in PBS (Polysciences Inc 18814), washed in 0.2% Tween-20 in PBS (wash buffer), and permeabilised for 10 min in 0.5% Triton X-100 in PBS, all at room temperature. The cells are then washed once in wash buffer and blocked for 30 min at room temperature in 10% goat serum (Sigma G9023) diluted in wash buffer (block buffer). […]
Cells are imaged for Alexa Fluor 488 and Hoechst intensity using the BD Pathway 855 Bioimager and Attovision software (BD Biosciences, Version 1.6/855) to quantify phosphorylated H2AX Ser139 and DNA staining, respectively. The percentage of phosphorylated H2AX-positive nuclei in a montage of 9 images at 20× magnification is then calculated for each well using BD Image Data Explorer software (BD Biosciences Version 2.2.15). […] The percentage of H2AX positive nuclei is finally plotted against concentration for each compound and IC50s for intracellular ATR inhibition are determined using Prism software(GraphPad Prism version 3.0cx for Macintosh, GraphPad Software, San Diego Calif., USA).

In test [2] the test system is HCT116 colorectal cancer cells. As to the kind of experiment: HCT116 cell viability (MTS), compound alone. The test is classed as cell-based. Particulars: Homo sapiens, HCT-116, 96 h, read-out: HTC116 (MTS) IC50. The protocol:
as §1

[3] abbreviates: 5 nM full-length ATR, 10 μM ATP, Ki(app), read-out: ATR Inhibition Assay Ki.

Chain of full-length ATR (Q13535 whole entry): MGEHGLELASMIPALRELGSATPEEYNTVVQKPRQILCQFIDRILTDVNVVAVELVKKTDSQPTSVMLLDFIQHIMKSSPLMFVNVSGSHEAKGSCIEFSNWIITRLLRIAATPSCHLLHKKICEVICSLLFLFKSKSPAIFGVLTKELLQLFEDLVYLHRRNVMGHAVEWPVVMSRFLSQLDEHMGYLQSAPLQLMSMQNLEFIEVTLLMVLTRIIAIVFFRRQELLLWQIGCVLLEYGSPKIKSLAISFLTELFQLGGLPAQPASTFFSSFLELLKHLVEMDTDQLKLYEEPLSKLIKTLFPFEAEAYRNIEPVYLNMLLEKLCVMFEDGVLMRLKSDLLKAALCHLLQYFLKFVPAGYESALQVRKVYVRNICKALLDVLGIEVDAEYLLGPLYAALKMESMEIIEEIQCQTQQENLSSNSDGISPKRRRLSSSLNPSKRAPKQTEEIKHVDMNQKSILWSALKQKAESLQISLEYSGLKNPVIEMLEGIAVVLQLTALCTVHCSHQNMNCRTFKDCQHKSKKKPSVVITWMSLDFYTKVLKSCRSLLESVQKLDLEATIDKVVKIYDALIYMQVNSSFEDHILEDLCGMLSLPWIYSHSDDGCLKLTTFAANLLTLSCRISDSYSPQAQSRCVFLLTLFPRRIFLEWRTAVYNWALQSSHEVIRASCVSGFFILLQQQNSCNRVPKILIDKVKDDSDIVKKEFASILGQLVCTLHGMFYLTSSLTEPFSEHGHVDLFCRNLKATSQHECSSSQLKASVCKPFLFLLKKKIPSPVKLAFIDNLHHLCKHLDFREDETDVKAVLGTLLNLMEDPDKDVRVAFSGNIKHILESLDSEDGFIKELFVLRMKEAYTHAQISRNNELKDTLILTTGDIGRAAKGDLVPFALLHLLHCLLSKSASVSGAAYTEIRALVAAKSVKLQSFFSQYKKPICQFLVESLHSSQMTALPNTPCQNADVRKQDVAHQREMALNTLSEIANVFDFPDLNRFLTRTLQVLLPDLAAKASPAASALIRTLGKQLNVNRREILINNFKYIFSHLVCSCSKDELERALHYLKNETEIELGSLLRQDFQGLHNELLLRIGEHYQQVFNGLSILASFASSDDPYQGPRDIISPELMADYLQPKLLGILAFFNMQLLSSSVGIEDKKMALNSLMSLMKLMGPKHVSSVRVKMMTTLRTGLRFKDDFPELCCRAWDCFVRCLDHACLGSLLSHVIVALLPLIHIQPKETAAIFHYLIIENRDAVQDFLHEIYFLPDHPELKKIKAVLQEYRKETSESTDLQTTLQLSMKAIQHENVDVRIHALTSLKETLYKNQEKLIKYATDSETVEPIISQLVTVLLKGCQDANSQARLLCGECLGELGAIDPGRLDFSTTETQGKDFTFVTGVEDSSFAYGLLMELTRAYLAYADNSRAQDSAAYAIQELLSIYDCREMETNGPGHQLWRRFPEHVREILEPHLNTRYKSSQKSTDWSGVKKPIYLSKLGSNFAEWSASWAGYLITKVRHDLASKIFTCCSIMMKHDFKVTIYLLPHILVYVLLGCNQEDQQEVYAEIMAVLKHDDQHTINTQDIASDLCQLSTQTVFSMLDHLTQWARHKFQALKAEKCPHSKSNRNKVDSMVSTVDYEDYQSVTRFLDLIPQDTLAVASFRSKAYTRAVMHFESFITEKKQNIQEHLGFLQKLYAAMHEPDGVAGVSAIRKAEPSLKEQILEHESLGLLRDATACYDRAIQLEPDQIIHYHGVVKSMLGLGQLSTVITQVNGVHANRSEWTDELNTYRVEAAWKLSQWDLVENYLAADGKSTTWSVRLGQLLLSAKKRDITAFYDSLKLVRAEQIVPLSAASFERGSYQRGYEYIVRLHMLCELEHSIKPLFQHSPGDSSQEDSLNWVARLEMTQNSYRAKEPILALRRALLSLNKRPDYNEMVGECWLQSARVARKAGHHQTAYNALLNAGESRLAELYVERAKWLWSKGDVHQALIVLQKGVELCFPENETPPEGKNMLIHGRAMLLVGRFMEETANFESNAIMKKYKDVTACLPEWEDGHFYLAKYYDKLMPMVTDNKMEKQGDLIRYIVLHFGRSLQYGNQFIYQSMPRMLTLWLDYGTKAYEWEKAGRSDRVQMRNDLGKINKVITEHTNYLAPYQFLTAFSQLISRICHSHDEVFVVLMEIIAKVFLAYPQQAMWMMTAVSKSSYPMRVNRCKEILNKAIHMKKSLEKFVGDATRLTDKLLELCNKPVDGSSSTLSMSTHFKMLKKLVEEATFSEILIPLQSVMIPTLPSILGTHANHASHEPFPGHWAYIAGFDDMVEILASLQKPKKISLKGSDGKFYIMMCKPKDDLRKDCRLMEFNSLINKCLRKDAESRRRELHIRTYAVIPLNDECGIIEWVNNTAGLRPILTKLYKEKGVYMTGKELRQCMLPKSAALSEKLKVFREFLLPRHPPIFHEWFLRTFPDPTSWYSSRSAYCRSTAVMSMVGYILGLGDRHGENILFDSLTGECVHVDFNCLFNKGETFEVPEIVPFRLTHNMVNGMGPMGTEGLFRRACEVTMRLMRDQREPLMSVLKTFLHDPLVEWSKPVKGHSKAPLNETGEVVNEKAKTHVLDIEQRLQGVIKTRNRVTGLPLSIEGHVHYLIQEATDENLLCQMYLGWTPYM
Chain of intracellular ATR (Q13535 whole entry): as above
Chain of intracellular ATR (Q8WXE1 whole entry partner): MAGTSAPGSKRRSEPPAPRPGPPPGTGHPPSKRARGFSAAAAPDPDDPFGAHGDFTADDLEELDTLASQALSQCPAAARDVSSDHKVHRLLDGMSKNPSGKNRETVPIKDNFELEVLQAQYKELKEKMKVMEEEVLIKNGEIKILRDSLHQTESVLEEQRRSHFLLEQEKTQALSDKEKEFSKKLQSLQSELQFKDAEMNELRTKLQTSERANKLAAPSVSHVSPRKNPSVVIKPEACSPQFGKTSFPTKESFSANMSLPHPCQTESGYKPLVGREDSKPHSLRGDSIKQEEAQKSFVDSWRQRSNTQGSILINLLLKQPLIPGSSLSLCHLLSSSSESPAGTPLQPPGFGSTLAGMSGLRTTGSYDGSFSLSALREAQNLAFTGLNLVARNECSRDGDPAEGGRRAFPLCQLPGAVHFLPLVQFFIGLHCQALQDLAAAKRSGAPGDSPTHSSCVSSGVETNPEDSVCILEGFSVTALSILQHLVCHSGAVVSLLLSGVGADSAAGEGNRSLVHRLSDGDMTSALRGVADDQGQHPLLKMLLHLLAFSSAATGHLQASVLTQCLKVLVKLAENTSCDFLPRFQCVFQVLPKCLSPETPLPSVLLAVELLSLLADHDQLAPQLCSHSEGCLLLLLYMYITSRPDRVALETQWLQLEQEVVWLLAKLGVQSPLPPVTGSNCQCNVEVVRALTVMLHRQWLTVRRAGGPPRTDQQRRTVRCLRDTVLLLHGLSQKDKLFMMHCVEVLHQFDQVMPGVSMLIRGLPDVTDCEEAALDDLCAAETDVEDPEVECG

A word on the IC50: it is the concentration needed to halve the response being measured. Take `CC(O)CNCc1ccc(-c2cc(-c3nc(-c4ccc(S(=O)(=O)C(C)C)cc4)cnc3N)on2)cc1` (stereo not shown) [IIA-11, 1-(4-(5-(3-amino-6-(4-(isopropylsulfonyl)phenyl)pyrazin-2-yl)isoxazol-3-yl)benzylamino)propan-2-ol]: the “Synergy with Cisplatin (uM)” value in test [1] is on record as “+++ (Compounds with an IC50 or Ki value of ≤100 nM are marked with “+++.”)”. Moreover, the Ki at full-length ATR (setting [3]) was not above 100 nM; on full-length ATR (read-out: ATR Ki), not above 10 nM. Besides, the IC50 was not above 100 nM on intracellular ATR and 100 to 1000 nM in test [2].

Regarding `CNCc1ccc(-c2nnc(-c3nc(-c4ccc(S(=O)(=O)C(C)C)cc4)cnc3N)o2)cc1` [IA-159, 5-(4-isopropylsulfonylphenyl)-3-[5-[4-(methylaminomethyl)phenyl]-1,3,4-oxadiazol-2-yl]pyrazin-2-amine], the “Synergy with Cisplatin (uM)” value in test [1] was “+++ (Compounds with an IC50 or Ki value of ≤100 nM are marked with “+++.”)”. The Ki on full-length ATR (setting [3]) was not above 100 nM; on full-length ATR (read-out: ATR Ki), not above 10 nM. Also, the half-maximal inhibitory concentration (IC50) at intracellular ATR was not above 100 nM; in test [2] it was 100 to 1000 nM.

Regarding `CS(=O)(=O)c1ccc(-c2cnc(N)c(C(=O)Nc3ccccc3)n2)cc1` [Compound I-82, 3-amino-6-(4-(methylsulfonyl)phenyl)-N-phenylpyrazine-2-carboxamide], in test [1], the “Synergy with Cisplatin (uM)” value is “++ (Compounds with an IC50 or Ki value >100 nM but ≤1 uM are marked with “++.”)”. Further, the figures for the Ki on full-length ATR (setting [3]) and on full-length ATR (read-out: ATR Ki) were not above 100 nM and 10 to 100 nM, respectively. Further, the IC50 (against intracellular ATR; in test [2]) was 1000 to 20000 nM each time.

Turning to `CN(C)C(=O)c1ccc(-c2cnc(N)c(-c3nnc(-c4cccc(F)c4)o3)n2)cc1` [IA-40, 4-(5-amino-6-(5-(3-fluorophenyl)-1,3,4-oxadiazol-2-yl)pyrazin-2-yl)-N,N-dimethylbenzamide], the Ki at full-length ATR (read-out: ATR Ki) was 10 to 100 nM.

In the case of `NC(=O)c1cccc(-c2cnc(N)c(C(=O)Nc3ccccc3)n2)c1` [Compound I-18, 3-amino-6-(3-carbamoylphenyl)-N-phenylpyrazine-2-carboxamide], the Ki at full-length ATR (read-out: ATR Ki) was 100 to 5000 nM.

Turning to `Cc1ccc2nc(-c3nc(-c4ccc(C(=O)N5CCC(N(C)C)CC5)cc4)cnc3N)[nH]c2c1` [III-2, (4-(5-amino-6-(6-methyl-1H-benzo[d]imidazol-2-yl)pyrazin-2-yl)phenyl)(4-(dimethylamino)piperidin-1-yl)methanone], the Ki at full-length ATR (read-out: ATR Ki) lay in the range of 10 to 100 nM.

Take `COC(=O)c1ccc2nc(-c3nc(-c4ccc(S(C)(=O)=O)cc4)cnc3N)[nH]c2c1` [Compound I-116, methyl 2-(3-amino-6-(4-(methylsulfonyl)phenyl)pyrazin-2-yl)-1H-benzo[d]imidazole-6-carboxylate]: the Ki on full-length ATR (read-out: ATR Ki) fell in the range of 100 to 5000 nM.

In the case of `Nc1ncc(-c2cccc(C(=O)N3CCC(O)C3)c2)nc1C(=O)Nc1ccccc1` (stereo not shown) [Compound I-65, 3-amino-6-(3-(3-hydroxypyrrolidine-1-carbonyl)phenyl)-N-phenylpyrazine-2-carboxamide], the Ki on full-length ATR (read-out: ATR Ki) lay in the range of 100 to 5000 nM.

Regarding `CN(C)c1ccccc1-c1cnc(N)c(-c2nnc(-c3ccccc3)o2)n1` [IA-94, 5-(2-(dimethylamino)phenyl)-3-(5-phenyl-1,3,4-oxadiazol-2-yl)pyrazin-2-amine], the Ki on full-length ATR (read-out: ATR Ki) was in the range of 100 to 5000 nM.

As to `CN(C)C(=O)c1ccc(-c2cnc(N)c(-c3nnc(-c4ccccc4)s3)n2)c(C#N)c1` [IVA-1, 4-[5-amino-6-(5-phenyl-1,3,4-thiadiazol-2-yl)pyrazin-2-yl]-3-cyano-N,N-dimethyl-benzamide], on full-length ATR (read-out: ATR Ki), the Ki is not above 10 nM.

With `Cc1ccc2nc(-c3nc(-c4ccc(C(=O)N5CCC(N(C)C)CC5)cc4)cnc3N)[nH]c2c1` [Compound I-148, (4-(5-amino-6-(6-methyl-1H-benzo[d]imidazol-2-yl)pyrazin-2-yl)phenyl)(4-(dimethylamino)piperidin-1-yl)methanone], the Ki on full-length ATR (read-out: ATR Ki) lay in the range of 10 to 100 nM.

In the case of `CCNCc1ccc(-c2nnc(-c3nc(-c4ccc(S(=O)(=O)C(C)C)cc4)cnc3N)o2)cc1` [IA-122, 3-[5-[4-(ethylaminomethyl)phenyl]-1,3,4-oxadiazol-2-yl]-5-(4-isopropylsulfonylphenyl)pyrazin-2-amine], the Ki on full-length ATR (read-out: ATR Ki) is not above 10 nM.

Regarding `NC(=O)c1cccc(-c2cnc(N)c(-c3nnc(-c4ccccc4)o3)n2)c1` [IA-100, 3-[5-amino-6-(5-phenyl-1,3,4-oxadiazol-2-yl)pyrazin-2-yl]benzamide], on full-length ATR (read-out: ATR Ki), the Ki fell in the range of 10 to 100 nM.

These data come from US10479784B2, “Substituted pyrazin-2-amines as inhibitors of ATR kinase” (Vertex Pharmaceuticals Incorporated, priority 2008, dated 2019).
